The conditions of data set [1]: Crystal; DTA.
Data set [2] in a line: Molar enthalpy of transition or fusion. The settings on record: Crystal; DSC.

Molecules are shown by their SMILES. Numbers after ± are expanded uncertainties.

With `CCCCCCOC(=O)NC(=N)c1ccc(NCc2nc3cc(C(=O)N(CCC(=O)OCC)c4ccccn4)ccc3n2C)cc1.CS(=O)(=O)O` [Dabigatran etexilate mesylate], the Normal melting temperature in data set [1] was 190.09 ± 1.1 °C. In data set [2], the “Molar enthalpy of transition or fusion” value came out at 15.4 ± 0.693 kcal/mol.

Values taken from the NIST ThermoML archive (doi:10.1016/j.jct.2016.07.048).
